Test results as given in patent US6346633B1, “Anti-tumuor agents” (AstraZeneca AB, priority 1998, dated 2002).

Columns and labels:
[1] = system: T18 murine breast cancer cells; assay: Test (b): growth inhibition of T18 cells in culture under oxic conditions (MTT endpoint); format: cell-based; details: Mus musculus, 2 hours treatment, 90% air and 10% CO2, grown on for 6 days
Experimental: (b) An in vitro assay which determines the ability of a test compound to inhibit the growth of T18 murine breast cancer cells in cell culture under oxic conditions. The cells were grown in monolayer in 96 well plates and treated with compounds for 2 hours under an atmosphere of 90% air and 10% CO2. The cells were then grown on for 6 days at which time the extent of proliferation was assessed using a 3-(4,5-dimethylthiazol-2-yl)-2,5-diphenyltetrazolium bromide (MTT) endpoint. The test is similar to that described in J. Immunological Methods, 1983, 65, 55-63. The detailed methodology was as follows.
T18 murine breast tumour cells (derived from a spontaneous mammary tumour in the Balb/c mouse colony at Zeneca Pharmaceuticals, Mereside, Macclesfield, UK) were harvested from an exponentially growing monolayer culture. The cells were counted, diluted in RPMI 1640 culture medium (Gibco BRL, Life Technologies, Paisley, UK; supplemented with 15% foetal calf serum, glutamine, pyruvate, penicillin and streptomycin), and transferred to 96 well plates at 500 cells per 50 μl per well. […] The supernatant culture medium containing excess MTT was removed and DMSO (100 μl) was added to solubilise the formazan, the concentration of which was measured by determining the optical density at 540 nm. […]

[2] = system: spheroidal aggregates of EMT6 murine breast cancer cells; assay: Test (c): growth inhibition of spheroidal aggregates of EMT6 cells in oxygenated culture medium; format: cell-based; details: Mus musculus, 2 hours treatment, stasis of spheroid growth during 2-3 weeks, read-out: stasis ED50
Experimental: (c) An in vitro assay which determines the ability of a test compound to inhibit the growth in an oxygenated culture medium of spheroidal aggregates (˜400 microns in diameter) of EMT6 murine breast cancer cells. As the oxygen diffusion distance through tissue is approximately 120-150 microns, such spheroids have a chronically hypoxic central population of cells and a well oxygenated outer layer of cells. The multicellular spheroids were treated with test compounds for 2 hours as a well oxygenated suspension culture. The spheroids were subsequently washed free of test compound and selected spheroids were transferred to static culture so that the effect of treatment on volume growth could be measured. […]
EMT6 murine breast cells (obtained from P. R. Twentyman, MRC Oncology and Radiotherapeutics Unit, Cambridge, UK) were harvested from exponentially growing monolayer cultures and approximately 1×10^6 cells were used to inoculate a 500 ml spinner culture vessel containing Eagles minimal essential medium (200 ml; supplemented with 10% foetal calf serum, glutamate, non-essential amino acids, penicillin and streptomycin). […] The area of each spheroid was measured using an image analyser and the 24-well plates were transferred to a CO2 incubator at 37° C. The spheroids were then re-measured every 2-3 days for up to 21 days, with fresh culture medium (250 μl) being added to each well every 3 days. […]

[3] = system: T18 murine breast tumours; assay: Test (d): in vivo growth delay of T18 tumours; parameters: species or system Balb/c mice; details: single dose of approximately 50 mg/kg intraperitoneally
From the text: (d) An in vivo assay in a group of Balb/c mice which determines the ability of a test compound to delay the growth of T18 murine breast tumours. The detailed methodology was as follows:
T18 murine breast tumour tissue was routinely maintained by animal to animal passage. To prepare a batch of tumours for an experiment, tumour tissue was removed from several donor Balb/c mice and placed in saline. Outer tissue was removed and healthy looking regions of tumour were cut into approximately 1 mm pieces and implanted subcutaneously by trocar into the left flanks of anaesthetised female Balb/c mice. After 2-3 weeks, most of the implants had grown to approximately 8 mm in diameter. The animals were placed randomly into groups of 6-7, rejecting any with very large, or small, tumours. Each test compound was dissolved in DMSO and diluted with Cremophor EL followed by saline, to give a 1:1:3 mixture of DMSO, Cremophor EL and saline. Each test compound was administered by the intraperitoneal route as a single bolus dose (0.1 ml per 10 g body weight of each animal). Control animals received vehicle alone. All mice were weighed daily and the dimensions (length and width) of each tumour were measured every 2-3 days using vernier calipers. […] Growth curves were constructed and the effect of treatment was assessed using a growth delay endpoint.

**Q.** For `COCCC1=C(C)C(=O)C(C)=C(C(C)(C)CC(=O)Oc2ccc(N(CCCl)CCCl)cc2)C1=O` [Example 2, 4-[bis(2-chloroethyl)amino]phenyl 3-[2-(2-methoxyethyl)-3,5-dimethyl-1,4-benzoquinonyl]-3-methylbutyrate], which IC50 [1] is on record?
**A.** 4.8 µM

**Q.** And the EC50 [2]?
**A.** ~6 µM

**Q.** And the growth delay [3]?
**A.** approximately 12 days
